Test results taken from paper PMC10144242, “Design, Synthesis, In Vitro, and In Silico Insights of 5-(Substituted benzylidene)-2-phenylthiazol-4(5H)-one Derivatives: A Novel Class of Anti-Melanogenic Compounds” (Molecules, 2023).

Test system: tyrosinase protein expression in B16F10 cells
Assay: Western blot of tyrosinase protein in IBMX/α-MSH-stimulated cells
Format: cell-based, murine
Details: for tyrosinase expression level relative to untreated control: B16F10, 20 µM, IBMX 200 µM + α-MSH 1 µM, stimulator alone 6.6-fold (for 1), 5.7-fold (for 2); for effect on tyrosinase expression levels: B16F10, 5, 10, 20 µM, IBMX + α-MSH
Experimental: We investigated whether the derivatives 1 and 2 could influence the expression of tyrosinase protein using Western blotting. […] At 20 µM, derivatives 1 and 2 reduced the tyrosinase expression levels that increased during the stimulator treatment to 4.4- and 3.1-fold, respectively, implying that derivatives 1 and 2 may, in part, contribute to their anti-melanogenic actions by inhibiting tyrosinase expression.
After stimulating murine melanoma (B16F10) cells with α-MSH and IBMX for 24 h in the presence or absence of the tested derivatives at the indicated concentrations, the cells were lysed with lysis buffer containing protease and phosphatase inhibitors. Protein concentrations were determined using a BCA protein assay kit, according to the manufacturer’s instructions (Pierce, Rockford, IL, USA). Lysate proteins in each sample (10–20 µg) were subjected to 9% sodium dodecyl sulfate–polyacrylamide gel electrophoresis and electrophoretically transferred to a PVDF membrane (Millipore, Billerica, MA, USA) using a semi-dry system (Bio-Rad, Hercules, CA, USA). The membranes were incubated with 5% non-fat milk in TBST (0.1 M Tris-HCl, pH 7.5, 1.5 M NaCl, and 1% Tween 20) for 2 h. After blocking, the membranes were incubated with primary antibodies at 4 °C overnight. The following antibodies were used: tyrosinase and β-actin primary antibodies, as well as horseradish peroxidase-conjugated anti-mouse and anti-goat secondary antibodies (Santa Cruz Biotechnology, Dallas, TX, USA). The protein bands were visualized using the SuperSignal West Pico Chemiluminescence assay kit (Advansta, San Jose, CA, USA) and the Davinch–Chem program (Davinch-K, Seoul, Republic of Korea). The relative intensities were acquired using CS Analyzer 3.2 (Densitograph) image analysis software (http://www.attokorea.co.kr, accessed on 21 November 2022).
Figure 13 Effects of (Z)-BPT derivatives 1 and 2 on tyrosinase expression. Tyrosinase expression levels were evaluated in the presence of a stimulator (1 µM of α-MSH plus 200 µM of IBMX) with various concentrations (5, 10, and 20 µM) of derivatives 1 and 2 in B16F10 cells. ^### p < 0.001; * p < 0.05, and ** p < 0.01.

SMILES	tyrosinase expression level relative to untreated control [fold]	effect on tyrosinase expression levels
O=C1N=C(c2ccccc2)S/C1=C\c1ccc(O)cc1 [Compound 1, (Z)-5-(4-Hydroxybenzylidene)-2-phenylthiazol-4(5H)-one]	4.4	significantly reduced the tyrosinase expression levels in a dose-dependent manner
O=C1N=C(c2ccccc2)S/C1=C\c1ccc(O)cc1O [Compound 2, (Z)-5-(2,4-Dihydroxybenzylidene)-2-phenylthiazol-4(5H)-one]	3.1	significantly reduced the tyrosinase expression levels in a dose-dependent manner
